Counter-ions that a name gives are not always drawn. Calls of active or inactive are those of the source.

From ChEMBL document CHEMBL1201862, “PubChem BioAssay data set” (2004) come the findings set out here.

The test system of experiment [1] is Streptococcus sp. 'group A'. Put plainly: Streptococcus pyogenes SK(-)GAS viability under kanamycin – luminescence, BacTiterGlo, confirmation, counter-screen for streptokinase expression inhibitor project, dose response (AID 1900). It is filed as functional, organism-based.
Another experiment concerns the target T1, Streptokinase A (Streptococcus pyogenes serotype M1, UniProt P10520).
T1 sequence (P10520 whole entry): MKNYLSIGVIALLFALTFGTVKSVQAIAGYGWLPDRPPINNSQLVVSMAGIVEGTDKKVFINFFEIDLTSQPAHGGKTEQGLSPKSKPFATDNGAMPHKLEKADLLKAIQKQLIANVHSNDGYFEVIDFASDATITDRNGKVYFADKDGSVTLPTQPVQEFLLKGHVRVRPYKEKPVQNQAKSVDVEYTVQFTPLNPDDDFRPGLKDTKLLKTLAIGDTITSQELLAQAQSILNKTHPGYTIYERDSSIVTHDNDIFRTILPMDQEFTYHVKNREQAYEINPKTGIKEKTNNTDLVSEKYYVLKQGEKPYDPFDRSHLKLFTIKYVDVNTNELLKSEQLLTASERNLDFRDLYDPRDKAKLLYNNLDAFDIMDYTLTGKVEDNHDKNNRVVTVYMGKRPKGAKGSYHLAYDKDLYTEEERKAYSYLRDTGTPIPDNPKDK
Put plainly: viability-normalized secreted streptokinase activity reduction – plasminogen activation absorbance, OD405, dose response (AID 1914).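 Also: secreted streptokinase activity via plasminogen activation per viability signal from cell pellet.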 In kind it is functional, Streptococcus pyogenes M1 GAS.

Another experiment deals with T2, Insulin-degrading enzyme (Homo sapiens, UniProt P14735).
T2 sequence (P14735 whole entry): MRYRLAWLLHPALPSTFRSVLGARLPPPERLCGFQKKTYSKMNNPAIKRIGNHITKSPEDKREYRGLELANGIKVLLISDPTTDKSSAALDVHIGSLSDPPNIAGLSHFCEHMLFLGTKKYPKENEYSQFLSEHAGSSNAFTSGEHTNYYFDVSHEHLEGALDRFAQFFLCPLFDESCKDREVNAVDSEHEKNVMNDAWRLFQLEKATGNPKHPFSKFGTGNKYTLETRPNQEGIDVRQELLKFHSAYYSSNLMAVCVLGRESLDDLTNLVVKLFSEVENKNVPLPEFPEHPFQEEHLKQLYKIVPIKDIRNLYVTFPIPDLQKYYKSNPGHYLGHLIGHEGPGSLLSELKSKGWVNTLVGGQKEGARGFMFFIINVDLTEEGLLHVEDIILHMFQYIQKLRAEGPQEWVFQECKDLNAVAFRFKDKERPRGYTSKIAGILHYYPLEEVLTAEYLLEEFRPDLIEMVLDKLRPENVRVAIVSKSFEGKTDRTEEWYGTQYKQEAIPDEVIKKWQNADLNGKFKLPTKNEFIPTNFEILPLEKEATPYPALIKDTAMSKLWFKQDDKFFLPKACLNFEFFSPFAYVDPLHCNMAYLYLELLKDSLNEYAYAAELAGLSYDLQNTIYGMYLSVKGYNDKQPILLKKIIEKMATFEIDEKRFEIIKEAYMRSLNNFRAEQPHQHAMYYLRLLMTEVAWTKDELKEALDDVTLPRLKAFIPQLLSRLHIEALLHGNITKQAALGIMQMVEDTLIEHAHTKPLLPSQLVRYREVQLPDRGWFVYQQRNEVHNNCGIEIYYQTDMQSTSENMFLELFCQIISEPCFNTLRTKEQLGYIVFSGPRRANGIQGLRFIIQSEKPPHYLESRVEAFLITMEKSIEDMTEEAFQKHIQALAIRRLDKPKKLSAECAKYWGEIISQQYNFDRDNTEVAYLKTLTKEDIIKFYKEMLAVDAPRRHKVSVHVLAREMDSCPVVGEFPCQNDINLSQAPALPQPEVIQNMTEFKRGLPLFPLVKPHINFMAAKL
Put plainly: cellular IDE activation of Abeta substrate cleavage – fluorescence polarization, HEK cells, dose response (AID 588439). In kind it is functional, cell-based. Background: Polarisation of emitted light reports the rotation of a fluorescent probe.

The test system of the next experiment is HEK293. Put plainly: optical interference in Abeta FP readout, dose response, artefact control for IDE activator project, biochemical, fluorescence polarization (AID 588442). In kind it is functional, cell-based. The note with it: Homo sapiens.
Another experiment deals with Jurkat. Put plainly: blockers of NF-kB activation in T cells – Jurkat, luciferase reporter, luminescence, B- and T-cell, dose response (AID 489004).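 Also: NF-kB luciferase reporter Jurkat cells stimulated with PMA plus ionomycin.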 It is filed as functional, cell-based. The settings on record: Homo sapiens. For orientation: In a reporter assay the amount or activity of a reporter protein is the signal.
Experiment [2] has as its target Megakaryocyte-associated tyrosine-protein kinase (Homo sapiens, UniProt P42679). It is filed as functional.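 Also: affinity measured as one member of a kinase panel (Navigating the Kinome) against MATK.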
Experiment [3] has as its target Dual specificity protein kinase CLK2 (Homo sapiens, UniProt P49760). In kind it is functional.
The target of experiment [4] is Phosphorylase b kinase gamma catalytic chain, liver/testis isoform (Homo sapiens, UniProt P15735). In kind it is functional.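 Also: PHKG2 measured as one member of a kinome-wide kinase panel.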
For experiment [5], the target named is Ribosomal protein S6 kinase beta-1 (Homo sapiens, UniProt P23443). In kind it is functional.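 Also: measured as one member of a kinome-wide profiling panel.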
A further experiment has as its target SRSF protein kinase 1 (Homo sapiens, UniProt Q96SB4). It is filed as functional.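 Also: measured as one member of a kinome-wide kinase profiling panel.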
Experiment [6] has as its target Tyrosine-protein kinase BTK (Homo sapiens, UniProt Q06187). In kind it is functional.
Experiment [7] has as its target Mitogen-activated protein kinase 13 (Homo sapiens, UniProt O15264). In kind it is functional.
The target in experiment [8] is Protein kinase C gamma type (Homo sapiens, UniProt P05129). In kind it is functional.
Experiment [9] addresses Glycogen synthase kinase-3 alpha (Homo sapiens, UniProt P49840). It is filed as functional.
In experiment [10] the target is Receptor tyrosine-protein kinase erbB-2 (Homo sapiens, UniProt P04626). The experiment in a line: Navigating the Kinome. Panel member name: ERBB2. In kind it is functional.
The target in experiment [11] is Serine/threonine-protein kinase Chk1 (Homo sapiens, UniProt O14757). In kind it is functional.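 Also: measured as one member of a kinome-wide kinase profiling panel.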
Serine/threonine-protein kinase Chk1, sequence (O14757 whole entry): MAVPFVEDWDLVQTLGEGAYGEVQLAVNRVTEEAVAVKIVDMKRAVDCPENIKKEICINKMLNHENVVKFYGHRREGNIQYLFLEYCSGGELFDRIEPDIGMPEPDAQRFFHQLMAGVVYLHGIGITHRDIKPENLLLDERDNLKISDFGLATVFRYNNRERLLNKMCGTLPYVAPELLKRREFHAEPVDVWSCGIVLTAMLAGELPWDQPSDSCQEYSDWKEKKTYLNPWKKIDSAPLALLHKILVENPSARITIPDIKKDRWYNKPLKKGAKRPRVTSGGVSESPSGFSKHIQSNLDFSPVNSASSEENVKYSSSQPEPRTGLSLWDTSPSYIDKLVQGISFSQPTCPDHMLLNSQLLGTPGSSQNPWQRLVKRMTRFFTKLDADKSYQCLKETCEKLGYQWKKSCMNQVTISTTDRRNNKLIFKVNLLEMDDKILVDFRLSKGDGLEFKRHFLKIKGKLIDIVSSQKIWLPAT
For experiment [12], the target named is MAP kinase-interacting serine/threonine-protein kinase 2 (Homo sapiens, UniProt Q9HBH9). It is filed as functional.
MAP kinase-interacting serine/threonine-protein kinase 2, sequence (Q9HBH9 whole entry): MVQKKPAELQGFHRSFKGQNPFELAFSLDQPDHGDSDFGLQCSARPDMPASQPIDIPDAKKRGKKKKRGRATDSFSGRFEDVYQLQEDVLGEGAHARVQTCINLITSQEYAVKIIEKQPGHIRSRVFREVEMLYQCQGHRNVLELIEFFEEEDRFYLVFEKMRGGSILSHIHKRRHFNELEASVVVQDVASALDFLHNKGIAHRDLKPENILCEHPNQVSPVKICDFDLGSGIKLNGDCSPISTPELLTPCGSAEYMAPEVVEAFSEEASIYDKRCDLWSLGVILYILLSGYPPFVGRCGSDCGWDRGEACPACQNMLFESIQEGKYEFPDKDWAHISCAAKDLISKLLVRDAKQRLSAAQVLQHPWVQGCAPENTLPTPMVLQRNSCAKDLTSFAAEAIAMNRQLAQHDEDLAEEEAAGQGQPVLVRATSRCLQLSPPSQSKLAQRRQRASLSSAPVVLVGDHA
The target of experiment [13] is Insulin-like growth factor 1 receptor (Homo sapiens, UniProt P08069). The experiment in a line: Navigating the Kinome. Panel member name: IGF1R. In kind it is functional.
Insulin-like growth factor 1 receptor, sequence (P08069 31-736 limits assumed): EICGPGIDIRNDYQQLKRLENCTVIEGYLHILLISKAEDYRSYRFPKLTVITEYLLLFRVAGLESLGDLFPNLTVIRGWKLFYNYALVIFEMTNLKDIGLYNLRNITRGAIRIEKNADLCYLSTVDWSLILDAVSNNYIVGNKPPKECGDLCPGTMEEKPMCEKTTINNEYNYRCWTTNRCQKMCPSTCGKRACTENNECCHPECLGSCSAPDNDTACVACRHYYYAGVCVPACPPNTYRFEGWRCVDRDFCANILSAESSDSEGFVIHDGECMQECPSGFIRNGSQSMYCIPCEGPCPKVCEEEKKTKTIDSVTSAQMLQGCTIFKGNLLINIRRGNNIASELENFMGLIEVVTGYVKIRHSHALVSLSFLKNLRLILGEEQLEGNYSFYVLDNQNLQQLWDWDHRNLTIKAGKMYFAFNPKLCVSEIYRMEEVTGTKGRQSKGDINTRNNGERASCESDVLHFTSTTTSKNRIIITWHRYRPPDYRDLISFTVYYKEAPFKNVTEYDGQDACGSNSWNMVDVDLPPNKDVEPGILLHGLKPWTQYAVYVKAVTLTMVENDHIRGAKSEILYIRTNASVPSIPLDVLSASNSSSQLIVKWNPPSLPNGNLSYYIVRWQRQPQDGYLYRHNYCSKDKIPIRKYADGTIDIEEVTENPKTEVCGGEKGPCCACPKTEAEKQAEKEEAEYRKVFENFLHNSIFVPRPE
Insulin-like growth factor 1 receptor, sequence (P08069 741-1367 limits assumed): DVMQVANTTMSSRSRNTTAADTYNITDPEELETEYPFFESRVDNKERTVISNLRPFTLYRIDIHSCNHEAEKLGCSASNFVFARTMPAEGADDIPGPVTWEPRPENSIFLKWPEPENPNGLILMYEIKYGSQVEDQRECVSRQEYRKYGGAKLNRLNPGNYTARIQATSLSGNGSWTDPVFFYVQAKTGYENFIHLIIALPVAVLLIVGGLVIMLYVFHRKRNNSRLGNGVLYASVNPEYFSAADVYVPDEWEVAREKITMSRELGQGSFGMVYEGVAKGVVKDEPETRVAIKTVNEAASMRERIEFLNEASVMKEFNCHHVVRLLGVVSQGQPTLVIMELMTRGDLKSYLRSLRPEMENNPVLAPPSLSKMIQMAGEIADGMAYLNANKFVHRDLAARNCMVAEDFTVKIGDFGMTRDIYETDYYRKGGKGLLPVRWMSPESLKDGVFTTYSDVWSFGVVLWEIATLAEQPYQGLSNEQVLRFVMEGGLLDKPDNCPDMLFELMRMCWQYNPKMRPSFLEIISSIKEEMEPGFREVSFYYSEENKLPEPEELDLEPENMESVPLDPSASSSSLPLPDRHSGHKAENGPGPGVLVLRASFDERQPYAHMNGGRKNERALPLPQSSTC
In experiment [14] the target is Mitogen-activated protein kinase 1 (Homo sapiens, UniProt P28482). In kind it is functional.
Mitogen-activated protein kinase 1, sequence (P28482 whole entry): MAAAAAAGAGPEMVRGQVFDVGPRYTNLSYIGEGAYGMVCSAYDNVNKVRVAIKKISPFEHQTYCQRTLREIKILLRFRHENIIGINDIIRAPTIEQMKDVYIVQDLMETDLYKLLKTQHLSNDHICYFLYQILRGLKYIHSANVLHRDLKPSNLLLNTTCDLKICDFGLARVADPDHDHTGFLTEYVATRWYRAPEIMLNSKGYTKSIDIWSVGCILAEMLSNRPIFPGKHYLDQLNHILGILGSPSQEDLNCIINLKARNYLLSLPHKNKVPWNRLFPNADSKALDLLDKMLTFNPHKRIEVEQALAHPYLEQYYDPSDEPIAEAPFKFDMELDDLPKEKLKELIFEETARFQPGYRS
In experiment [15] the target is Interleukin-1 receptor-associated kinase 1 (Homo sapiens, UniProt P51617). In kind it is functional.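 Also: IRAK1 tested as one member of a kinome panel.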
Experiment [16] deals with Maternal embryonic leucine zipper kinase (Homo sapiens, UniProt Q14680). It is filed as functional.
The target of experiment [17] is Leukocyte tyrosine kinase receptor (Homo sapiens, UniProt P29376). The experiment in a line: Navigating the Kinome. Panel member name: LTK. It is filed as functional.
Leukocyte tyrosine kinase receptor, sequence (P29376 whole entry): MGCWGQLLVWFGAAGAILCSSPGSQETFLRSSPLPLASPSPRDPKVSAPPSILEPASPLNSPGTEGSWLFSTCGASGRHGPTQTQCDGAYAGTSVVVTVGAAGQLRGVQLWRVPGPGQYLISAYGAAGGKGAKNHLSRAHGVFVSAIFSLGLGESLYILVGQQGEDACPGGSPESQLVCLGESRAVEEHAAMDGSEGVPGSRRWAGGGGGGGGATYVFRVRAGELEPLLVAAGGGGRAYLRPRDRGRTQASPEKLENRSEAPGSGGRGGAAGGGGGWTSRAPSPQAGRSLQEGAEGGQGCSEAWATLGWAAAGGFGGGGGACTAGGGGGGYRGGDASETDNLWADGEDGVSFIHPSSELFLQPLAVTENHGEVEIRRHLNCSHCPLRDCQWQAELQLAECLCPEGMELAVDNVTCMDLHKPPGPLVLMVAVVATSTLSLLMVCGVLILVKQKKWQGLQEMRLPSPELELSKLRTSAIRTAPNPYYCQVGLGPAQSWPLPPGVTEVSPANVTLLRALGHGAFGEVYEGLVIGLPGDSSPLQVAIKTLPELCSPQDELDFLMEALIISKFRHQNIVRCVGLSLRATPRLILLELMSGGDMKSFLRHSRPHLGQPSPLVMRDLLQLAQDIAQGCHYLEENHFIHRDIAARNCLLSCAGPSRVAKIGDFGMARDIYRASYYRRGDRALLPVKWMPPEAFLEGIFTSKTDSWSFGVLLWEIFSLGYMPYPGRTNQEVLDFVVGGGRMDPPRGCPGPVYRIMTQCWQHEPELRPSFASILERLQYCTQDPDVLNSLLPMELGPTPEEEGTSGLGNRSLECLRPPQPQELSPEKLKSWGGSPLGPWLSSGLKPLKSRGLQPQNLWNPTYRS
The target in experiment [18] is Mitogen-activated protein kinase 14 (Homo sapiens, UniProt Q16539). In kind it is functional.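 Also: part of a kinome-wide panel, MAPK14 entry.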
The target of experiment [19] is 5-hydroxytryptamine receptor 1A (Homo sapiens, UniProt P08908). In kind it is functional.
The next experiment deals with 14-3-3 protein gamma (Homo sapiens, UniProt P61981). The experiment in a line: modulators of 14-3-3 gamma client binding – dose response (AID 711). It is filed as functional.

Dual specificity protein kinase CLK2, sequence (P49760 whole entry, canonical isoform): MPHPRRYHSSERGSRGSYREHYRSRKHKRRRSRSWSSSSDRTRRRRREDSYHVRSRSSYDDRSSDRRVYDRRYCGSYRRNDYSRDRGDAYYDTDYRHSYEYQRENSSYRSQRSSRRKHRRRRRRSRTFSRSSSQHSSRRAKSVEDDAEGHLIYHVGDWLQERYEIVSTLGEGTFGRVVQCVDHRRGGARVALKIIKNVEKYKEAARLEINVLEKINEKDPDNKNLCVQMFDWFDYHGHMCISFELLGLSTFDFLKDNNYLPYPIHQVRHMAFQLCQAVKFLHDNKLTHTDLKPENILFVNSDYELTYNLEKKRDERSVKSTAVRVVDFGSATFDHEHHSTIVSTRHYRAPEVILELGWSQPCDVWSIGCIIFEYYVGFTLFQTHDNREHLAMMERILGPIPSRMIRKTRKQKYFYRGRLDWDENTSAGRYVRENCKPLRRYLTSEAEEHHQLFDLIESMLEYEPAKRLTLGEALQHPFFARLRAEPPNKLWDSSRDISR
Tyrosine-protein kinase BTK, sequence (Q06187 whole entry): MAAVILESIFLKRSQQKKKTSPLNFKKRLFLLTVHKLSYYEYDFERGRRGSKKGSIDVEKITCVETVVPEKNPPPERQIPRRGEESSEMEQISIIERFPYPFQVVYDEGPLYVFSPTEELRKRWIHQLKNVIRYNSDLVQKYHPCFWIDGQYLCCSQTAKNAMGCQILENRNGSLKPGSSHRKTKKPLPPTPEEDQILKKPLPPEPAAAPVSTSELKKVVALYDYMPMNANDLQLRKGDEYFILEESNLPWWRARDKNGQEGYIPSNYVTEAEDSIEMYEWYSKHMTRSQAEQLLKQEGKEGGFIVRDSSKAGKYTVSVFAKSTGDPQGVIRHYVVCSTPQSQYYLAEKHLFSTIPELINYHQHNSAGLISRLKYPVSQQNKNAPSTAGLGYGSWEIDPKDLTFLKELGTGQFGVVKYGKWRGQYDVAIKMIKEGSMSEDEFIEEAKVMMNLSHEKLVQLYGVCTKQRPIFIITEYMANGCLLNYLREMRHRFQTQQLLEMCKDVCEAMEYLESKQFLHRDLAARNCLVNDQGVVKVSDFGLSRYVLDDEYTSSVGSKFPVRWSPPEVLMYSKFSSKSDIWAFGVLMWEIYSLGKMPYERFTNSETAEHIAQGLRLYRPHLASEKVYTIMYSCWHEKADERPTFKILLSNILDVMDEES
Mitogen-activated protein kinase 13, sequence (O15264 whole entry): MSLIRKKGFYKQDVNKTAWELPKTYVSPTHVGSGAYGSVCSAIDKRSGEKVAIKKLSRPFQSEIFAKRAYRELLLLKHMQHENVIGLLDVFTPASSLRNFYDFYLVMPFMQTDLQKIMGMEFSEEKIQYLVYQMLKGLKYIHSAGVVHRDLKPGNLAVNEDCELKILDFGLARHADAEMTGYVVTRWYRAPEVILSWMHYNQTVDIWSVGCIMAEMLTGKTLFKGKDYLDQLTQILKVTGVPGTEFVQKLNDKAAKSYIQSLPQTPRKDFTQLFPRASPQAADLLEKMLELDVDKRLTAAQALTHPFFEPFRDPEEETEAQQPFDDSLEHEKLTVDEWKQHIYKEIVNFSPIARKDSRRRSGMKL

As to `CCCCCCCCCCOC(=O)C[n+]1c(COc2ccc(C)cc2)n(C)c2ccccc21`, the EC50 (in general, the concentration needed to bring the measured effect to its halfway point) in experiment [1] is 6.2 µM (active); on Streptokinase A, > 150 µM (not active); on Insulin-degrading enzyme, > 6.08 µM (active); in the experiment with HEK293 it was > 55.9 µM (inactive).

For `CCN1/C(=C\c2ccc3ccccc3[n+]2CC)Sc2cc(C)ccc21`, the half-maximal inhibitory concentration (IC50) (usually the point on the concentration scale where inhibition reaches its midpoint) in the experiment with Jurkat is 15.5 µM (active).

As to `CN1CCN(c2nc(C3=C(c4c[nH]c5ccccc45)C(=O)NC3=O)c3ccccc3n2)CC1` [SOTRASTAURIN], the Ki (in general, a measure of affinity in units of concentration, obtained from inhibition or displacement) was > 2 µM (inactive) in [2]; > 2.51 µM (inactive) in experiment [3]; > 5.01 µM (inactive) in [4]; 0.158 µM (active) in experiment [5]; > 7.94 µM (inactive) on SRSF protein kinase 1; > 3.98 µM (inactive) in experiment [6]. The Ki in [7] is > 7.94 µM (inactive); in experiment [8] it was 0.0126 µM (active); in experiment [9], 0.158 µM (active); in experiment [10] it was 0.794 µM (active); in experiment [11], > 5.01 µM (inactive); in experiment [12], > 10 µM (inactive). The Ki is > 2 µM (inactive) in experiment [13]; > 7.94 µM (inactive) in [14]; > 7.94 µM (inactive) in experiment [15]; > 1.58 µM (inactive) in experiment [16]; 2.51 µM (active) in [17]; > 3.98 µM (inactive) in [18].

As to `CC[C@@H](CO)NC(=O)[C@@H]1C=C2c3cccc4c3c(cn4C)C[C@H]2N(C)C1` [METHYSERGIDE MALEATE], the EC50 in experiment [19] was 1.07 µM (active). In addition, on 14-3-3 protein gamma, the half-inhibitory concentration (IC50) is > 50 µM (not active).
